Where two headings read alike, the source gives them in different places.
What was measured:
human ACE2 protein = human ACE2 protein (Homo sapiens, UniProt Q9BYF1); test: SPR affinity screen, compounds over immobilized ACE2-His (CM5 chip); type: binding
[1] = biological target: T1, SARS-CoV-2 spike S-RBD protein (Severe acute respiratory syndrome coronavirus 2, UniProt P0DTC2); test: biochemical; type: binding
T1 construct: the S-RBD-mFc protein and ACE2-His protein were immobilized on a CM5 sensor chip; purchased Sino Biological (Beijing, China) 40592-V05H

S-RBD-His protein = biological target: T2, S-RBD-His protein (Severe acute respiratory syndrome coronavirus 2, UniProt P0DTC2); test: Isothermal titration calorimetry (ITC) of compound with S-RBD-His; type: binding, SARS-CoV-2; conditions: 25 °C, read-out: affinity measured by ITC
T2 construct: spike S-RBD protein with His tag (26.6 kDa)

ACE2-S-RBD interaction = ACE2-S-RBD interaction (Severe acute respiratory syndrome coronavirus 2, UniProt P0DTC2); type: binding
[2] = Cytotoxicity in 293T-hACE2 cells (PrestoBlue / CCK); conditions: human, 293T-hACE2 cells
Description: (§1) First, cytotoxicity of 02B05 and 03D12 in 293T-hACE2 cells was assayed using PrestoBlue cell viability reagent. Briefly, the cells were seeded into 96-well plates and treated with different concentrations of compounds (a three-fold concentration series from 0.12 to 30 μM for 02B05 and 0.12 to 3.3 μM for 03D12). After incubation at 37 °C for 24 h, 10 μL PrestoBlue (10×) was added to each well and mixed well with the medium. After incubation at 37 °C for another 1 h, the fluorescent signals were read at an excitation wavelength of 560 nm and an emission wavelength of 590 nm, using the EnSpire multimode plate reader (Perkin Elmer, Waltham, MA, USA).

293T-hACE2 cells = test: as above
Description: as §1

[3] = test system: SARS-CoV-2 pseudovirus in 293T-hACE2 cells; test: Pseudovirus entry assay (luciferase), SARS-CoV-2 pseudovirus; type: cell-based
[4] = test system: VSV pseudovirus in 293T-hACE2 cells; type: cell-based, vesicular stomatitis virus

Chain of human ACE2 protein (Q9BYF1 18-740 limits assumed): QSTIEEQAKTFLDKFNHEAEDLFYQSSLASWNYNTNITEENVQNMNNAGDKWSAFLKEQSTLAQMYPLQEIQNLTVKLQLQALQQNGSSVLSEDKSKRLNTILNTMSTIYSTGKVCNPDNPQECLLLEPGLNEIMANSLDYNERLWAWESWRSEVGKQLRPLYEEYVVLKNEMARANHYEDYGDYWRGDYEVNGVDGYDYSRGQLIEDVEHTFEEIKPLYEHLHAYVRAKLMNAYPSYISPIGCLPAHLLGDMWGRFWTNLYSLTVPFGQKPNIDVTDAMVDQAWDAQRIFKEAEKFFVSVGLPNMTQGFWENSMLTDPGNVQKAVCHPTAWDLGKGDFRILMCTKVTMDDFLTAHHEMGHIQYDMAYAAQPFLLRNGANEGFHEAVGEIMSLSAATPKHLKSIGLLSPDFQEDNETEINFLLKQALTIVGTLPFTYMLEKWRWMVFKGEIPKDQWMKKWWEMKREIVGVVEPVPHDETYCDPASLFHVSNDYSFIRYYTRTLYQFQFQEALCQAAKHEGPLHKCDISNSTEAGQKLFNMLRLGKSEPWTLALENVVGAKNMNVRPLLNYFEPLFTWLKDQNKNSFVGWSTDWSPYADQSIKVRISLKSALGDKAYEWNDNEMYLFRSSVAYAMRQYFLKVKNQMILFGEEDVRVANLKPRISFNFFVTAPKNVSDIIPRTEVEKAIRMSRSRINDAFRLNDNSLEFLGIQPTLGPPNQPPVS

Compound CC(C)c1cc(C(C)C)c(CC(=O)NS(=O)(=O)Oc2ccccc2)c(C(C)C)c1 [02C19] has a koff (human ACE2 protein; read-out: koff) of 0.052 s⁻¹, a kon (human ACE2 protein; read-out: kon) of 2340 M⁻¹ s⁻¹ and a Kd (human ACE2 protein; target ACE2, SPR, 1:1 binding model for kinetics) of 22.2 µM.
For Nc1nc(Nc2ccc3c(c2)CC[C@@H](N2CCCC2)CC3)nn1-c1cc2c(nn1)-c1ccccc1CCC2 [02J06], the Kd (human ACE2 protein) was 243 µM, the koff (human ACE2 protein; read-out: koff) was 0.636 s⁻¹ and the kon (human ACE2 protein; read-out: kon) was 2610 M⁻¹ s⁻¹. The Kd [1] was 64.2 µM, the koff [1] was 0.329 s⁻¹ and the kon [1] was 5120 M⁻¹ s⁻¹.
Compound C[C@@]1(C(=O)O)CC[C@]2(C)CC[C@]3(C)C4=CC(=O)c5c(cc(O)c(O)c5C=O)[C@]4(C)CC[C@@]3(C)[C@@H]2C1 [02B05, demethylzeylasteral] has a Kd (human ACE2 protein) of 1.74 µM, a koff (human ACE2 protein) of 0.00335 s⁻¹ and a kon (human ACE2 protein) of 1990 M⁻¹ s⁻¹. It also gave a Kd [1] of 1.04 µM, a koff [1] of 0.00244 s⁻¹ and a kon [1] of 2350 M⁻¹ s⁻¹. For the same compound, the Kd (S-RBD-His protein) was 2.09 µM, the “blocking effect on binding of S-RBD to ACE2 (competitive inhibition)” value (ACE2-S-RBD interaction) was “strongest blocking effect” and the CC50 at 24 h [2] was 7.67 ± 0.79 µM. The “cell viability and cell morphology” value (293T-hACE2 cells; at 0.37 μM) was “no changes were observed”, the cell morphology (293T-hACE2 cells; at 1.1 μM) was “affected” and the “effect on the activity (viability) of 293T-hACE2 cells” value (293T-hACE2 cells; concentration no more than 1.1 μM, CCK and PrestoBlue) was “no significant effect”. The inhibition at 0.37 µM ([3]; Severe acute respiratory syndrome-related coronavirus, 0.37 μM, 293T-hACE2 cells, 24 h post infection, read-out: inhibition of transduction of SARS-CoV-2 pseudovirus) was ~7% and the “effect on the transduction of VSV pseudovirus” value [4] was “no effect”.
Compound COc1cc2c(Oc3ccc4[nH]c(C)cc4c3F)ncnc2cc1OCCCN1CCCC1 [03D12] has a Kd (human ACE2 protein) of 3.43 µM, a koff (human ACE2 protein; read-out: koff) of 0.00948 s⁻¹ and a kon (human ACE2 protein; read-out: kon) of 2760 M⁻¹ s⁻¹. For the same compound, the Kd [1] was 4.59 µM, the koff [1] was 0.00964 s⁻¹ and the kon [1] was 2100 M⁻¹ s⁻¹. For the same compound, the “blocking effect on binding of S-RBD to ACE2 (competitive inhibition)” value (ACE2-S-RBD interaction) was “effective in blocking ACE2-S-RBD interaction”, the cytotoxicity (293T-hACE2 cells; concentration as high as 3.3 μM) was “not obvious” and the “inhibitory activity in pseudovirus entry assay” value ([3]; any concentration tested (0.12 to 3.3 μM)) was “did not exhibit significant inhibitory activity”. The “inhibitory activity in pseudovirus entry assay” value ([3]; at 3.3 μM) was “no obvious”.
For C=CC(=O)Nc1cc(Nc2nccc(-c3c[nH]c4ccccc34)n2)c(OC)cc1N(C)CCN(C)C [02C15], the Kd [1] was 9.11 µM, the koff [1] was 0.0215 s⁻¹ and the kon [1] was 2360 M⁻¹ s⁻¹.
With Cl.N [ammonium chloride, reference compound] the “infection by SARS-CoV-2 pseudovirus” value ([3]; positive control, 20 mM, 293T-hACE2 cells) was “almost abolished” and the “infection by VSV pseudovirus” value [4] was “almost abolished”.

From paper PMC7794844 (Molecules, 2020)
